T/C data for 27 compounds are collected here from PubChem BioAssay AID330 (DTP/NCI, 2004).

Several values for one entry are separate records, joined by “and”; a condition that tells them apart may be missing. Identical values can stand only once. Inconclusive results and toxic doses are left out.

The subject of the assay is P388 leukemia ip, CD2F1 mice, survival T/C. The assay is described as follows: NCI In Vivo Anticancer Drug Screen. Data for tumor model P388 Leukemia (intraperitoneal) in CD2F1 (CDF1) mice. The settings on record: endpoint: median survival time, higher = longer survival. The method in brief: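 Mice carrying the transplanted tumor received test compound or vehicle. Survival was recorded in each group, and the value is the treated-group measurement divided by that of the vehicle-treated control group.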

Where [1] appears, read: dose: 50.0 mg/kg/injection, schedule: Q01DX005 (ip), vehicle: Klucel (hydroxypropylcellulose) (HPC).
[2] abbreviates: dose: 100.0 mg/kg/injection, schedule: Q01DX005 (ip), vehicle: Klucel (hydroxypropylcellulose) (HPC).
The mark [3] stands for this setting: dose: 200.0 mg/kg/injection, schedule: Q01DX005 (ip), vehicle: Klucel (hydroxypropylcellulose) (HPC).
Where [4] appears, read: dose: 50.0 mg/kg/injection, schedule: Q01DX009 (ip), vehicle: saline with Tween-80.
Setting [5] is: dose: 60.0 mg/kg/injection, schedule: Q01DX005 (ip), vehicle: Klucel (hydroxypropylcellulose) (HPC).
Where [6] appears, read: dose: 100.0 mg/kg/injection, schedule: Q04DX003 (ip), vehicle: saline.
[7] abbreviates: dose: 50.0 mg/kg/injection, schedule: Q01DX005 (ip), vehicle: saline with Tween-80.
[8] abbreviates: dose: 100.0 mg/kg/injection, schedule: Q01DX005 (ip), vehicle: saline with Tween-80.
Where [9] appears, read: dose: 60.0 mg/kg/injection, schedule: Q01DX005 (ip), vehicle: saline with Tween-80.
The mark [10] stands for this setting: dose: 120.0 mg/kg/injection, schedule: Q01DX005 (ip), vehicle: saline with Tween-80.
[11] abbreviates: dose: 240.0 mg/kg/injection, schedule: Q01DX005 (ip), vehicle: saline with Tween-80.
Where [12] appears, read: dose: 200.0 mg/kg/injection, schedule: Q01DX005 (ip), vehicle: saline with Tween-80.

As for `Cc1ccc(OP(=O)(Oc2ccc(C)cc2)Oc2ccc(C)cc2)cc1.Cc1ccc(OP(=O)(Oc2ccc(C)cc2)Oc2ccc(C)cc2)cc1.[Cl][Mn][Cl]`, the T/C by setting is: (dose: 100.0 mg/kg/injection, schedule: Q04DX003 (ip), vehicle: Klucel (hydroxypropylcellulose) (HPC)) 110 % of control; (dose: 200.0 mg/kg/injection, schedule: Q04DX003 (ip), vehicle: Klucel (hydroxypropylcellulose) (HPC)) 115 % of control; (dose: 400.0 mg/kg/injection, schedule: Q04DX003 (ip), vehicle: Klucel (hydroxypropylcellulose) (HPC)) 114 % of control.
Turning to `Cn1c2ccccc2c2[nH]c3ccccc3c(=O)c21`, the T/C was 108 % of control and 97 % of control under setting [1]; 95 % of control under setting [2]; 90 % of control and 96 % of control under setting [3].
In the case of `O=C1C2C3C=CC(C2C(=O)N1CO)C1C2C(=O)N(CO)C(=O)C2C31` (centres undefined), the T/C was 105 % of control (dose: 12.5 mg/kg/injection, schedule: Q01DX009 (ip), vehicle: water); 157 % of control (dose: 25.0 mg/kg/injection, schedule: Q01DX009 (ip), vehicle: water); 195 % of control under setting [4]; 208 % of control (dose: 50.0 mg/kg/injection, schedule: Q01DX009 (ip), vehicle: water).
With `COc1ccc(C2Oc3cc(O)c4c(=O)c5c(OC)cccc5oc4c3OC2CO)cc1O` (centres undefined), the T/C is, setting by setting: (dose: 6.25 mg/kg/injection, schedule: Q01DX009 (ip), vehicle: saline + alcohol) 111 % of control; (dose: 12.5 mg/kg/injection, schedule: Q01DX009 (ip), vehicle: saline + alcohol) 100 % of control; (dose: 25.0 mg/kg/injection, schedule: Q01DX009 (ip), vehicle: saline + alcohol) 100 % of control.
On to `Cc1c(C)[n+]([O-])c(-c2ccc(Cl)cc2)n1O`, for which the T/C is 100 % of control under setting [4]; 100 % of control (dose: 100.0 mg/kg/injection, schedule: Q01DX009 (ip), vehicle: saline with Tween-80); 100 % of control (dose: 200.0 mg/kg/injection, schedule: Q01DX009 (ip), vehicle: saline with Tween-80).
With `CC(=O)N1c2ccccc2Sc2cc(C(O)(C(F)(F)F)C(F)(F)F)ccc21`, the T/C runs as follows: (dose: 25.0 mg/kg/injection, schedule: Q04DX003 (ip), vehicle: saline with Tween-80) 95 % of control; (dose: 50.0 mg/kg/injection, schedule: Q04DX003 (ip), vehicle: saline with Tween-80) 100 % of control; (dose: 100.0 mg/kg/injection, schedule: Q04DX003 (ip), vehicle: saline with Tween-80) 100 % of control.
Consider `COc1ccc(C2c3cc4c(cc3OC3(N5CCCC5)CCCC23)OCO4)c(OC)c1` (centres undefined), for which the T/C runs as follows: under setting [5], 99 % of control; (dose: 120.0 mg/kg/injection, schedule: Q01DX005 (ip), vehicle: Klucel (hydroxypropylcellulose) (HPC)) 95 % of control; (dose: 240.0 mg/kg/injection, schedule: Q01DX005 (ip), vehicle: Klucel (hydroxypropylcellulose) (HPC)) 96 % of control.
For `c1cc(-c2cc3cc(C4=NCCN4)ccc3s2)ccc1C1=NCCN1`, the T/C is 115 % of control (dose: 25.0 mg/kg/injection, schedule: Q04DX003 (ip), vehicle: saline); 111 % of control (dose: 50.0 mg/kg/injection, schedule: Q04DX003 (ip), vehicle: saline); 98 % of control under setting [6].
`O=c1nc2n(CC(O)C(O)C(O)C(O)CO)c3cc(Cl)c(Cl)cc3nc-2c(=O)[nH]1` (centres undefined): the T/C was 105 % of control under setting [7] and 111 % of control under setting [8].
With `NCCC(=O)NCCSSCCNC(=O)CCN`, the T/C under setting [6] was 112 % of control and the T/C (dose: 200.0 mg/kg/injection, schedule: Q04DX003 (ip), vehicle: saline) was 111 % of control.
As for `CCOC(=O)Cc1ccc(N(CCO)CCO)cc1`, the T/C by setting is: under setting [9], 100 % of control; under setting [10], 103 % of control; under setting [11], 101 % of control.
As for `CCC[CH2][Sn]([CH2]CCC)([n]1ccnc1)[n]1ccnc1`, the T/C by setting is: (dose: 3.12 mg/kg/injection, schedule: Q01DX005 (ip), vehicle: Klucel (hydroxypropylcellulose) (HPC)) 116 % of control; (dose: 6.25 mg/kg/injection, schedule: Q01DX005 (ip), vehicle: Klucel (hydroxypropylcellulose) (HPC)) 110 % of control.
Consider `O=C(c1ccccc1)c1cccc[n+]1Cc1ccccc1`, for which the T/C (dose: 12.5 mg/kg/injection, schedule: Q01DX009 (ip), vehicle: saline) is 103 % of control; the T/C (dose: 25.0 mg/kg/injection, schedule: Q01DX009 (ip), vehicle: saline) was 96 % of control; the T/C (dose: 50.0 mg/kg/injection, schedule: Q01DX009 (ip), vehicle: saline) was 98 % of control and 100 % of control.
Turning to `COC(=O)C1=NOC(COc2ccc([N+](=O)[O-])cc2)C1` (centres undefined), the T/C is 100 % of control under setting [9], 93 % of control under setting [10] and 86 % of control under setting [11].
For the compound `CC12C=CC(O1)C1C(=O)OC(=O)C12` (centres undefined), the T/C under setting [9] was 101 % of control and the T/C under setting [10] was 90 % of control.
For `Nc1nc(N)c(N=O)c(N)n1`, the T/C runs as follows: (dose: 44.0 mg/kg/injection, schedule: Q01DX009 (ip), vehicle: saline) 104 % of control; (dose: 66.0 mg/kg/injection, schedule: Q01DX009 (ip), vehicle: saline) 104 % of control; (dose: 100.0 mg/kg/injection, schedule: Q01DX009 (ip), vehicle: saline) 104 % of control; (dose: 150.0 mg/kg/injection, schedule: Q01DX009 (ip), vehicle: saline) 102 % of control.
Take `CCS(=O)C(F)(F)C(F)Cl` (centres undefined): the T/C was 97 % of control under setting [7], 100 % of control under setting [8] and 100 % of control under setting [12].
As for `O=C1NC2(CCCCC2)C(=O)N1CCCCCN(CCCl)CCCl`, the T/C is 111 % of control (dose: 1.5 mg/kg/injection, schedule: Q01DX005 (ip), vehicle: saline); 119 % of control (dose: 3.0 mg/kg/injection, schedule: Q01DX005 (ip), vehicle: saline); 160 % of control (dose: 40.0 mg/kg/injection, schedule: Q01DX005 (ip), vehicle: saline).
Turning to `Cc1c2c(c(C)c3c1C(=O)c1cc4c(cc1C3=O)OCO4)OC(C)O2`, the T/C is 89 % of control under setting [9], 89 % of control under setting [10] and 91 % of control under setting [11].
Consider `COc1ccc(C(Nc2ccc([N+](=O)[O-])cc2)P(=O)(c2ccccc2)c2ccccc2)cc1` (centres undefined), for which the T/C reads like this: under setting [9], 99 % of control; under setting [10], 92 % of control; under setting [11], 88 % of control.
On to `COC(=O)c1cccc(OCC(=O)Nc2ccccc2)c1`, for which the T/C runs as follows: (dose: 100.0 mg/kg/injection, schedule: Q01DX001 (ip), vehicle: saline with Tween-80) 100 % of control; (dose: 200.0 mg/kg/injection, schedule: Q01DX001 (ip), vehicle: saline with Tween-80) 100 % of control; (dose: 400.0 mg/kg/injection, schedule: Q01DX001 (ip), vehicle: saline with Tween-80) 90 % of control.
As to `CC(CCO)CCC(Br)C(C)(C)Br` (centres undefined), the T/C runs as follows: (dose: 50.0 mg/kg/injection, schedule: Q01DX005 (ip), vehicle: saline) 103 % of control; (dose: 100.0 mg/kg/injection, schedule: Q01DX005 (ip), vehicle: saline) 105 % of control; (dose: 200.0 mg/kg/injection, schedule: Q01DX005 (ip), vehicle: saline) 100 % of control.
For the compound `CC(=O)OC1SCCn2c1nc1ccccc1c2=O` (centres undefined), the T/C was 106 % of control under setting [7], 104 % of control under setting [8] and 99 % of control under setting [12].
On to `CCN(CCO)CCc1cccc2ccccc12`, for which the T/C is 104 % of control under setting [1] and 99 % of control under setting [2].
Turning to `CSC1=Nc2ccccc2N=C(N2CCCC2)C1`, the T/C runs as follows: under setting [1], 103 % of control; under setting [2], 97 % of control; under setting [3], 97 % of control.
Turning to `C/C(=N\N)c1nc2ccccc2[nH]1`, the T/C is, setting by setting: (dose: 15.0 mg/kg/injection, schedule: Q01DX005 (ip), vehicle: saline with Tween-80) 101 % of control; (dose: 30.0 mg/kg/injection, schedule: Q01DX005 (ip), vehicle: saline with Tween-80) 101 % of control; under setting [5], 100 % of control; under setting [9], 108 % of control.
Take `CCCCCCCCCCCCCCC(C(=O)[O-])[n+]1ccccc1` (centres undefined): the T/C reads like this: (dose: 15.0 mg/kg/injection, schedule: Q01DX005 (ip), vehicle: saline) 114 % of control; (dose: 30.0 mg/kg/injection, schedule: Q01DX005 (ip), vehicle: saline) 96 % of control; (dose: 60.0 mg/kg/injection, schedule: Q01DX005 (ip), vehicle: saline) 110 % of control.
